The text below walks through data of patent publication US20260217712A1, “SOLID STATE FORMS OF MNK INHIBITORS” (4E Therapeutics, Inc., priority 2023, published 2026).

Structures are written as SMILES. Several values for one entry are separate records, joined by “and”; a condition that tells them apart may be missing. Identical values can stand only once. Counter-ions that a name gives are not always drawn.

What all share (type): physicochemical
Data set [1] in a line: Static storage at 40° C./75% RH, XRPD and HPLC post storage. As to conditions: for stability to storage at 40° C./75% RH (in words): 40° C./75% RH (elevated temperature and humidity); for HPLC purity post storage at 40° C./75% RH / XRPD post storage at 40° C./75% RH: 7 days. The protocol:
Purity analysis was performed on an Agilent HP1100/Infinity II 1260 series system equipped with a diode array detector and using OpenLAB software. The full method details are provided below:
Poorly Crystalline Structure (I) (from Lot A, Free Form Pattern 1, 30 mg) was dissolved in 50 volumes of THF:Water 9:1 at 60° C. in 13 vials, stirring at 500 RPM (small amount of debris present). The solutions were then treated with 1.1 molar equivalents (90/180 μL) of selected counter-ions (Table 7). The resulting solutions were then cooled down to 5° C. at 0.1° C./min and were held at this temperature for 2 days. The suspensions were filtered and dried under suction for 20 min. The gummed sample was left with the cap off to promote crystallization. All solids obtained were initially analyzed by XRPD and stored in glass HPLC vials for subsequent analysis.
Any solids obtained were analyzed by XRPD, ^1H NMR, HPLC, TGA, DSC, XRPD post storage at 40° C./75% RH after 7 days & IC if necessary. Additional microscopy techniques (PLM & HSM) were used to complement the above analysis where appropriate.

Experiment in data set [2]: as above
The conditions noted are these: 7 days.

The nature of data set [3]: High temperature solubility assessment. On the set-up: key: T = turbid solution; X = suspension. As to conditions: for observation at 60° C.: 30 mg in 50 volumes of the sample's solvent; for observation at 70° C. / observation at 80° C. / observation at 85° C.: 50 volumes. The procedure: Due to low solubility observed in the experiments of Example 2, a second solubility assessment of Structure (I) from Lot A was carried out using higher temperatures closer to the boiling points of the selected solvent systems (Table 10). Once at temperature, phosphoric acid or a base was added to either promote formation of a phosphate or Na/K salt.
Structure (I) (from Lot A, Free Form Pattern 1, 30 mg) was weighed into 6 HPLC vials and a stirrer bar added to each one. 50 volumes of different solvents were added to the samples according to Table 10 and the samples heated incrementally on a Polar Bear heating block, stirring at 400 RPM. Observations were noted as the temperature was increased, holding at each temperature for 10 minutes.

The nature of data set [4]: Competitive slurries of Pattern 3 and Pattern 11, XRPD. As to conditions: for XRPD after 7 days / XRPD after 17 days: competitive slurry, solvent and temperature per sample; for XRPD after 7 days: 20 vol. The procedure:
A solid mixture of Structure (I) Pattern 3 (from Lot B, 300 mg) and Pattern 11 (Sample 35-1, 300 mg) was mixed for 3 hours using a turbula mixer.
The solid mixture (30 mg) was suspended in solvent (dried with molecular sieves, 600 μL, 20 vol) and either stirred in the fridge, shaken at RT or 55° C. After 7 days, an aliquot of each suspension was analyzed by XRPD. Samples that were still a mixture of forms were placed back into fridge/shakers for a further 10 days and re-analyzed (results shown in Table 36).
Competitive slurry experiments at 55° C., along with one at 5° C., were repeated using a saturated solution as the solvent mixture to minimize dissolution that may have occurred at temperatures other than room temperature.
A saturated solution of THF/Water (9:1) (5 mL) with Structure (I) (from Lot B) was equilibrated at 55° C. overnight in a shaker. The solution was filtered using 0.45 μm nylon filter before use.
A solid mixture of Pattern 3 and Pattern 11 (30 mg) was suspended in the saturated solution (600 μL, 20 vol) and either stirred in the fridge (5° C.) or shaken at 55° C. After 1 day, aliquots of the suspensions were analyzed by XRPD. Both samples were placed back into fridge/shaker. After a total of 11 days, the samples were removed from fridge/shaker. Sample 38-2 was filtered before XRPD, Sample 38-1 was pipetted onto the XRPD holder and allowed to dry before analysis (solid passed through filter).

Regarding `Cc1cc(Nc2cc(N)ncn2)c(=O)n2c1C(=O)NC21CCC2(CC2)CC1` [BES Pattern 1], in data set [1], the “stability to storage at 40° C./75% RH (in words)” value is “not stable to storage”. In addition, the “HPLC purity post storage at 40° C./75% RH” value in data set [1] (listed as 9-6) was 98.8%.

With `Cc1cc(Nc2cc(N)ncn2)c(=O)n2c1C(=O)NC21CCC2(CC2)CC1` [CIT Pattern 1], the “XRPD post storage at 40° C./75% RH” value in data set [2] (listed as 9-11) is on record as “Citrate Pattern 1”. Further, the “HPLC purity post storage at 40° C./75% RH” value in data set [1] (listed as 9-11) turned out to be 98.8%.

Regarding `Cc1cc(Nc2cc(N)ncn2)c(=O)n2c1C(=O)NC21CCC2(CC2)CC1` [FUM Pattern 1], the “XRPD post storage at 40° C./75% RH” value in data set [2] (listed as 9-10) is recorded as “Fumarate Pattern 1”. In addition, in data set [1], the “change of chemical purity on storage at 40° C./75% RH (in words)” value is recorded as “slight uplift” and the “stability to storage at 40° C./75% RH (in words)” value is on record as “stable to storage”. Also, the “HPLC purity post storage at 40° C./75% RH” value in data set [1] (listed as 9-10) is reported as 98.8%.

For `Cc1cc(Nc2cc(N)ncn2)c(=O)n2c1C(=O)NC21CCC2(CC2)CC1` [Fumarate Pattern 2], the “XRPD post storage at 40° C./75% RH” value in data set [2] (listed as 22-4) is recorded as “FUM P2 (additional peaks lost),”; in data set [1] it was “loss of the additional peaks”. The “HPLC purity post storage at 40° C./75% RH” value in data set [1] (listed as 22-4) worked out at 99.2%.

As to `Cc1cc(Nc2cc(N)ncn2)c(=O)n2c1C(=O)NC21CCC2(CC2)CC1` [HBr Pattern 1], in data set [2] (listed as 9-1), the “XRPD post storage at 40° C./75% RH” value is “XRPD-HBr Pattern 1”. In addition, in data set [1], the “change of chemical purity on storage at 40° C./75% RH (in words)” value is recorded as “slight uplift in purity” and the “XRPD post storage at 40° C./75% RH” value is listed as “remained HBr Pattern 1”. In data set [1] (listed as 9-1), the “stability to storage at 40° C./75% RH (in words)” value is “behavior but not stable to storage” and the “HPLC purity post storage at 40° C./75% RH” value was found to be 98.7% purity.

For `Cc1cc(Nc2cc(N)ncn2)c(=O)n2c1C(=O)NC21CCC2(CC2)CC1` [HCl Pattern 4], in data set [1], the “stability to storage at 40° C./75% RH (in words)” value is given as “instability to storage”. Moreover, the “HPLC purity post storage at 40° C./75% RH” value in data set [1] (listed as 13-2) was “frit are not present. 95.7% purity”.

As for `Cc1cc(Nc2cc(N)ncn2)c(=O)n2c1C(=O)NC21CCC2(CC2)CC1` [PHO Pattern 2], in data set [1], the “HPLC purity post storage at 40° C./75% RH” value is on record as “crystallinity. 97.0% purity observed” and the “XRPD post storage at 40° C./75% RH” value is “lost a significant amount of crystallinity”.

As for `Cc1cc(Nc2cc(N)ncn2)c(=O)n2c1C(=O)NC21CCC2(CC2)CC1` [Pattern 2], the “HPLC purity post storage at 40° C./75% RH” value in data set [1] (listed as 9-12) came to 98.8%.

For the compound `Cc1cc(Nc2cc(N)ncn2)c(=O)n2c1C(=O)NC21CCC2(CC2)CC1` [Pattern 5], in data set [2] (listed as 30-2), the “XRPD post storage at 40° C./75% RH” value is “transition completed and 7 days: Change in form-Pattern 3”.

For `Cc1cc(Nc2cc(N)ncn2)c(=O)n2c1C(=O)NC21CCC2(CC2)CC1` [Pattern 10-1], in data set [3], the “observation at 60° C.” value is listed as “X” and the “observation at 70° C.” value is on record as “X”.

In the case of `Cc1cc(Nc2cc(N)ncn2)c(=O)n2c1C(=O)NC21CCC2(CC2)CC1` [Pattern 10-2], in data set [3], the “observation at 60° C.” value is reported as “X”, the “observation at 70° C.” value was “X”, the “observation at 80° C.” value is reported as “X” and the “observation at 85° C.” value was “X”.

In the case of `Cc1cc(Nc2cc(N)ncn2)c(=O)n2c1C(=O)NC21CCC2(CC2)CC1` [Pattern 10-3], in data set [3], the “observation at 60° C.” value is listed as “X”, the “observation at 70° C.” value is listed as “X”, the “observation at 80° C.” value was “X” and the “observation at 85° C.” value is given as “X”.

With `Cc1cc(Nc2cc(N)ncn2)c(=O)n2c1C(=O)NC21CCC2(CC2)CC1` [Pattern 10-4], in data set [3], the “observation at 60° C.” value is reported as “X”, the “observation at 70° C.” value is given as “X”, the “observation at 80° C.” value is on record as “X” and the “observation at 85° C.” value is reported as “X”.

As to `Cc1cc(Nc2cc(N)ncn2)c(=O)n2c1C(=O)NC21CCC2(CC2)CC1` [Pattern 10-5], in data set [3], the “observation at 60° C.” value is “X”, the “observation at 70° C.” value was “X”, the “observation at 80° C.” value is reported as “X” and the “observation at 85° C.” value was “X”.

Turning to `Cc1cc(Nc2cc(N)ncn2)c(=O)n2c1C(=O)NC21CCC2(CC2)CC1` [Pattern 10-6], in data set [3], the “observation at 60° C.” value is “T” and the “observation at 70° C.” value was “T”.

Take `Cc1cc(Nc2cc(N)ncn2)c(=O)n2c1C(=O)NC21CCC2(CC2)CC1` [Pattern 10-7]: in data set [3], the “observation at 60° C.” value is listed as “T” and the “observation at 70° C.” value is given as “T”.

Turning to `Cc1cc(Nc2cc(N)ncn2)c(=O)n2c1C(=O)NC21CCC2(CC2)CC1` [Pattern 10-8], in data set [3], the “observation at 60° C.” value is given as “T” and the “observation at 70° C.” value is recorded as “T”.

`Cc1cc(Nc2cc(N)ncn2)c(=O)n2c1C(=O)NC21CCC2(CC2)CC1` [Pattern 22-8]: in data set [1], the “HPLC purity post storage at 40° C./75% RH” value is listed as 99.4% and the “XRPD post storage at 40° C./75% RH” value was “SUL P2”.

Take `Cc1cc(Nc2cc(N)ncn2)c(=O)n2c1C(=O)NC21CCC2(CC2)CC1` [Pattern 36-1]: the “XRPD after 7 days” value in data set [4] is on record as “Pattern 11”.

Consider `Cc1cc(Nc2cc(N)ncn2)c(=O)n2c1C(=O)NC21CCC2(CC2)CC1` [Pattern 36-2], for which the “XRPD after 7 days” value in data set [4] was “Pattern 11”.

Consider `Cc1cc(Nc2cc(N)ncn2)c(=O)n2c1C(=O)NC21CCC2(CC2)CC1` [Pattern 36-3], for which, in data set [4], the “XRPD after 7 days” value was “Patterns 3 and 11”; the “XRPD after 17 days” value is “Patterns 3 and 11”.

`Cc1cc(Nc2cc(N)ncn2)c(=O)n2c1C(=O)NC21CCC2(CC2)CC1` [Pattern 36-4]: the “XRPD after 7 days” value in data set [4] is listed as “Pattern 11”.

Consider `Cc1cc(Nc2cc(N)ncn2)c(=O)n2c1C(=O)NC21CCC2(CC2)CC1` [Pattern 36-5], for which, in data set [4], the “XRPD after 7 days” value was “Pattern 11”.

In the case of `Cc1cc(Nc2cc(N)ncn2)c(=O)n2c1C(=O)NC21CCC2(CC2)CC1` [Pattern 36-6], the “XRPD after 7 days” value in data set [4] was “Pattern 11”.

As to `Cc1cc(Nc2cc(N)ncn2)c(=O)n2c1C(=O)NC21CCC2(CC2)CC1` [Pattern 36-7], the “XRPD after 7 days” value in data set [4] is listed as “Pattern 11”.

For the compound `Cc1cc(Nc2cc(N)ncn2)c(=O)n2c1C(=O)NC21CCC2(CC2)CC1` [Pattern 36-11], in data set [4], the “XRPD after 7 days” value is “Pattern 11 + extra”.

For `Cc1cc(Nc2cc(N)ncn2)c(=O)n2c1C(=O)NC21CCC2(CC2)CC1` [Pattern 36-12], the “XRPD after 7 days” value in data set [4] is “Pattern 11”.

`Cc1cc(Nc2cc(N)ncn2)c(=O)n2c1C(=O)NC21CCC2(CC2)CC1` [Pattern 36-13]: in data set [4], the “XRPD after 7 days” value was “Patterns 3 and 11”; the “XRPD after 17 days” value is “Patterns 3 and 11”.

In the case of `Cc1cc(Nc2cc(N)ncn2)c(=O)n2c1C(=O)NC21CCC2(CC2)CC1` [Pattern 36-14], in data set [4], the “XRPD after 7 days” value is “Patterns 3 and 11”; the “XRPD after 17 days” value was “Patterns 3 and 11”.

Turning to `Cc1cc(Nc2cc(N)ncn2)c(=O)n2c1C(=O)NC21CCC2(CC2)CC1` [Pattern 36-15], in data set [4], the “XRPD after 7 days” value is “Patterns 3 and 11”; the “XRPD after 17 days” value was “Pattern 11”.

Take `Cc1cc(Nc2cc(N)ncn2)c(=O)n2c1C(=O)NC21CCC2(CC2)CC1` [Pattern 38-1]: the “XRPD after 1 day” value in data set [4] (slurry in saturated THF/Water (9:1) solution) is “Patterns 3 and 11 +”.

Turning to `Cc1cc(Nc2cc(N)ncn2)c(=O)n2c1C(=O)NC21CCC2(CC2)CC1` [TOS Pattern 1], the “XRPD post storage at 40° C./75% RH” value in data set [1] is recorded as “large loss in crystallinity”. Further, the “HPLC purity post storage at 40° C./75% RH” value in data set [1] (listed as 9-4) is on record as 99.3%.
